# Patent publication US20240197738A1, “COMPOUND 7AI IN TREATING EWING SARCOMA BY INHIBITING OTUD7A” (The University of North Carolina at Chapel Hill, priority 2021, published 2024)
# Assays:
# A673^3A cells = assay: Cell viability (MTT) assay, A673^3A knockin; format: cell-based, human; conditions: 3-day treatment (FIG. 5I)
# Protocol: Parental A673 cells were splitted into 24-well plates and transfected with sgRNA against EWS-FLI1 together with EWS-FLI1-3A-ssoDNA following protocols as described. 1-day post-transfection, cells were selected with 1 μg/ml puromycin for 3 days. Surviving cells were counted and each single cell was seeded into 96-well plates. Each single clone grown up in 96-well plates was amplified and one copy was used for genomic DNA extraction, followed by PCR and BpmI digestion to screen for potential knockin clones. BpmI negative clones are selected and sequenced to verify the knockin at the DNA level. 3 isogenic knockin clones were selected and saved.
# (§1) 2,000 indicated cells were seeded in each well of 96-well plates for MTT assays to monitor cell viability at indicated time periods using a method adapted from https://www.thermofisher.com/us/en/home/references/protocols/cell-culture/mtt-assay-protocol/vybrant-mtt-cell-proliferation-assay-kit.html. Briefly, at indicated time points post-cell seeding, 10 μL MTT solution was added into each well and incubated in the culture incubator (37° C. with 5% CO2) for 4 hrs. Then medium was removed and 100 μL DMSO was added into each well to dissolve the formazan crystal and incubated for 10 min at 37° C. After thorough mixing, absorbance at 540 nm was measured using the BioTek Cytation 5 Cell Imaging reader.
# [1] = tested on: A673 cells xenografted tumor; assay: Mouse xenograft assay with A673 cells; format: in vivo, nude mice
# Protocol: All mouse work has been reviewed and approved by UNC Institutional Animal Care and Use Committee under IACUC #19-031. Mouse xenograft assays were performed as described previously. Briefly, for mouse xenograft experiments, 2.5×10^6 parental or EWS-FLI1-3A knockin A673 cells were mixed 1:1 with matrigel (Corning 354230) and injected into the flank of indicated female nude mice (NCRNU-M-M from UNC Animal Facility, 4 weeks old). Six days post-injection, when the tumors were established, 2% sucrose with or without 1 μg/mL tetracycline was supplied in water for mice and refreshed every 5 days. Tumor size was measured every two days with a digital caliper, and the tumor volume was determined with the formula: L×W^2×0.52, where L is the longest diameter and W is the shortest diameter. After 22 days, mice were sacrificed, and tumors were dissected and weighed.
# For 7Ai treatment in nude mice, 2.5×10^6 A673 cells were mixed 1:1 with matrigel (Corning 354230) and injected into the flank of indicated female nude mice (NCRNU-M-M from UNC Animal Facility, 4 weeks old). Seven days post-injection, when the tumors were established, 100 μL 7Ai (25 mg/kg, dissolved in ethanol followed by the addition of sunflower oil and then sonicated at 4° C. in a water bath sonicator until 7Ai was completely dissolved) was given to mice through IP injections and this treatment was repeated every 3 days.
# Freshly dissected xenografted tumors are immediately fixed in 10% formalin for 2 days before transferring to 80% ethanol for one day to prepare tumor blocks. 4-μm sections were cut from each of the tumor blocks by UNC TPL facility and used for IHC study. IHC was performed as described previously. Normal human tissue TMA was purchased from UNC TPL facility. Human Ewing sarcoma tissues were obtained post-mortem and fixed in 10% formalin and embedded in paraffin.
# [2] = molecular target: T1, OTUD7A-mediated deubiquitination of EWS-FLI1 (Homo sapiens, UniProt Q8TE49); assay: Ni-NTA pulldown ubiquitination assay in HEK293T cells; format: cell-based; conditions: compound added 10 hrs prior to cell collection (FIG. 5C)
# T1 construct: Myc-Flag; expressed in transfected cells; host or cells: HEK293T
# T1 sequence (Q8TE49 whole entry): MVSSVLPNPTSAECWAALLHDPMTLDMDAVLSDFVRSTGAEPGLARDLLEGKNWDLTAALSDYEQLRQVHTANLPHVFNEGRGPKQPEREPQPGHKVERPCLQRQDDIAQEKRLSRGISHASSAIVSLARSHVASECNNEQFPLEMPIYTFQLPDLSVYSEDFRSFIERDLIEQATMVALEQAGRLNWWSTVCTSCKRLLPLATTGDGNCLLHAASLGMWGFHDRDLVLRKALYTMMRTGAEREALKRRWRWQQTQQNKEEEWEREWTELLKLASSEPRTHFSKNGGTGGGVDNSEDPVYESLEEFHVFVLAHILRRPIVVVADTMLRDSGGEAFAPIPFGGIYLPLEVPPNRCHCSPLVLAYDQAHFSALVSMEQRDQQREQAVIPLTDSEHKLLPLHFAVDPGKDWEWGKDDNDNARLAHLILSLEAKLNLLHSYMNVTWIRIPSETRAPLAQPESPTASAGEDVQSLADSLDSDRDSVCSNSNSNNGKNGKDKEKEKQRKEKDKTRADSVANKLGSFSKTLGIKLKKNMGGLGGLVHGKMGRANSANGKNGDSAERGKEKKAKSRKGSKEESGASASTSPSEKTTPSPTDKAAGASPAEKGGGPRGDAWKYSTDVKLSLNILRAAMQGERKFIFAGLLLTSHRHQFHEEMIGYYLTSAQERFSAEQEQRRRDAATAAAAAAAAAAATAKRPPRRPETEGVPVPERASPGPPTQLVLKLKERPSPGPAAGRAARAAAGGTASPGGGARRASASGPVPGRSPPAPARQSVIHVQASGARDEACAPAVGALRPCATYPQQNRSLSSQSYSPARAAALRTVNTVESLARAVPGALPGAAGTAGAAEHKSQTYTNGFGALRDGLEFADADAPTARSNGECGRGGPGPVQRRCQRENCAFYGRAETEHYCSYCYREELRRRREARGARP
# Protocol: Cells were lysed in EBC buffer (50 mM Tris pH 7.5, 120 mM NaCl, 0.5% NP-40) or Triton X-100 buffer (50 mM Tris pH 7.5, 150 mM NaCl, 1% Triton X-100) supplemented with protease inhibitors (Complete Mini, Roche) and phosphatase inhibitors (phosphatase inhibitor cocktail set I and II, Calbiochem). The protein concentrations of whole cell lysates were measured by NanoDrop OneC using the Bio-Rad protein assay reagent as described previously. Equal amounts of whole cell lysates were resolved by SDS-PAGE and immunoblotted with indicated antibodies. For immunoprecipitations analysis, unless specified, 1000 μg lysates were incubated with the indicated antibody (1-2 μg) for 3-4 hr at 4° C. followed by 1 hr incubation with 10 μL Protein A magnetic beads (New England Biolabs). Or 1000 μg lysates containing tagged molecules were incubated with agarose beads coupled antibodies for the specific tag for 3-4 hr at 4° C. For endogenous IPs, incubation of cell lysates with antibodies was extended to overnight. The recovered immuno-complexes were washed five times with NETN buffer (20 mM Tris, pH 8.0, 100 mM NaCl, 1 mM EDTA and 0.5% NP-40) before being resolved by SDS-PAGE and immunoblotted with indicated antibodies.
# MHH-ES-1 cells = assay: Cell viability (MTT) assay, MHH-ES-1; format: cell-based, human; conditions: MHH-ES-1, 3-day treatment
# Protocol: as §1
# EWS-FLI1 mRNA = assay: RT-PCR of EWS-FLI1 mRNA levels; format: cell-based, human; conditions: 7Ai treatment
# Protocol: Cells were isolated by dissociation with 0.05% Trypsin, followed by media quenching. The cells were spun down at 300×rcf for 5 minutes. The media was aspirated, the pellet was suspended with 1×PBS, and then the cells were spun down again. The PBS was aspirated. RNA extraction was performed with an RNA extraction kit (BioBasic BS584). The final elution step was done with 50 μL of RNAse-free water. The […] with the NanoDrop OneC (Thermo Fisher Scientific). Three biological replicates were performed for RNA extraction. Quartile analysis was done to exclude outliers and significance was determined by one-way ANOVA tests.
# A673 cells [3] = assay: Transwell migration assay, A673; format: cell-based, human; conditions: A673 cells in vitro
# Protocol: 1×10^5 cells were plated in an […], 24-well plate chamber insert (Corning Life Sciences, catalog no. 3422) with serum free DMEM medium at the top of the insert and the same medium containing 20% fetal bovine serum (FBS) at the bottom of the insert. Cells were incubated for 24 hr and fixed with 4% paraformaldehyde for 15 min. After washing with PBS, cells at the top of the insert were scraped with a cotton swab. Cells adherent to the bottom were stained with 0.5% crystal violet blue for 60 min and then washed with double-distilled H2O (ddH2O). The positively stained cells were examined under the microscope.
# A673 cells [4] = assay: Cell viability (MTT) assay, A673; format: cell-based, human; conditions: A673, 3-day treatment
# Protocol: as §1
smiles,measurement,setting,value
Cn1nccc1-c1cc(-c2ccnn2C)n2nc(C(=O)Nc3cnn(Cc4c(Cl)cccc4Cl)c3)cc2n1 [7Ai],proliferation (cell viability),A673^3A cells,not observed
same,tumor volume,"[1]; A673 xenograft in nude mice, 25 mg/kg IP, vs vehicle (FIG. 5P)",significantly reduced tumor volume
same,"tumor growth (dissected tumors, weight)","[1]; A673 xenograft in nude mice, 25 mg/kg IP, vs vehicle (FIGS. 5Q-5R)",significantly reduced
same,EWS-FLI1 protein in treated tumors,"[1]; A673 xenograft tumors, IHC",reduced EWS-FLI1 protein
same,apoptosis in treated tumors (cleaved-caspase3 staining),"[1]; A673 xenograft tumors, IHC",increased apoptosis
same,cell proliferation in treated tumors (Ki67 staining),"[1]; A673 xenograft tumors, IHC",reduced
same,body weight,"[1]; nude mice, 25 mg/kg IP, 3-week treatment period",did not significantly affect body weight
same,OTUD7A-mediated deubiquitination of EWS-FLI1 in cells,[2],efficiently blocked OTUD7A-mediated deubiquitination of EWS-FLI1
same,proliferation (cell viability),MHH-ES-1 cells,reduced MHH-ES-1 proliferation
same,EWS-FLI1 mRNA levels,EWS-FLI1 mRNA,did not affected EWS-FLI1 mRNA levels
same,cell migratory ability,A673 cells [3],significantly reduced A673 cell migratory ability
same,proliferation (cell viability),A673 cells [4],reduced proliferation
